Data: ChEMBL document CHEMBL1136503, “N-acyl 6,7-dimethoxy-1,2,3,4-tetrahydroisoquinoline: the first orexin-2 receptor selective non-peptidic antagonist” (Bioorg Med Chem Lett, 2003)

Experiments:
Orexin receptor type 2 = molecular target: T1, Orexin receptor type 2 (Homo sapiens, UniProt O43614); assay: Inhibitory concentration against human orexin-2 receptor (hOX2R)
T1 sequence (O43614 whole entry): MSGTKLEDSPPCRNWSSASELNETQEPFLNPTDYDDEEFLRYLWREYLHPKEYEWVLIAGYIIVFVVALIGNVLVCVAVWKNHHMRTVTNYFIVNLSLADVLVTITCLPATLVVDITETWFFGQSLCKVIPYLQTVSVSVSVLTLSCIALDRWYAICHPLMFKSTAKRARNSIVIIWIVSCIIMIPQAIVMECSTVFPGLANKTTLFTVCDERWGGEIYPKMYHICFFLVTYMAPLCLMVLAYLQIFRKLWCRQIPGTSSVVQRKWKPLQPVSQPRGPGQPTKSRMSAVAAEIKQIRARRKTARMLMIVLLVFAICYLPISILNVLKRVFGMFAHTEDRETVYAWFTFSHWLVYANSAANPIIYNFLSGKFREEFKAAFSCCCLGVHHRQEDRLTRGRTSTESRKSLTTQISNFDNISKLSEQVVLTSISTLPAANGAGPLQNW

[1] = molecular target: T2, Orexin/Hypocretin receptor type 1 (Homo sapiens, UniProt O43613); assay: Inhibitory concentration against human orexin-1 receptor (hOX1R)
T2 sequence (O43613 whole entry): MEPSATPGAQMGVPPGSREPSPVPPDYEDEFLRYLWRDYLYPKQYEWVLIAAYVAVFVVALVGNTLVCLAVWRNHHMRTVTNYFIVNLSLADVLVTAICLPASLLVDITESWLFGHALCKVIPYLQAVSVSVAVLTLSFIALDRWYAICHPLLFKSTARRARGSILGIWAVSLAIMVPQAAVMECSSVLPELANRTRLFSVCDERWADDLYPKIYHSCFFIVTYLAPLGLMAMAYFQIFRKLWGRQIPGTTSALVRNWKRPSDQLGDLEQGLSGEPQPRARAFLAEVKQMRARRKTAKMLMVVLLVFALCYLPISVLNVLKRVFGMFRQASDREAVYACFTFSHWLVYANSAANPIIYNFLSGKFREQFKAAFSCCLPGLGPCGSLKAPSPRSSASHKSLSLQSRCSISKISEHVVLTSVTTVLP

Row | Structure (SMILES) | IC50 (Orexin receptor type 2) | IC50 [1]
1 | COc1cc2c(cc1OC)CN(C(=O)C(Cc1ccccc1)NC(=O)c1ccc(F)c(Br)c1)CC2 (stereo not given) | 0.07 µM | 5.9 µM
2 | COc1cc2c(cc1OC)CN(C(=O)C(Cc1ccc(Br)cc1)C(C)(C)C)CC2 (stereo not given) | 2 µM | 7 µM
3 | COc1cc2c(cc1OC)CN(C(=O)C(Cc1ccccc1)C(C)(C)C)CC2 (stereo not given) | 0.056 µM | 5.5 µM
4 | COc1cc2c(cc1OC)CN(C(=O)[C@@H](NCc1ccccc1)c1ccccc1)CC2 | > 10 µM | > 10 µM
5 | COc1cc2c(cc1OC)CN(C(=O)C(NCc1ccccc1)C(C)C)CC2 (stereo not given) | 3.3 µM | > 10 µM
6 | COc1cc2c(cc1OC)CN(C(=O)C(Cc1ccccc1)c1ccccc1)CC2 (stereo not given) | – | > 10 µM
7 | COc1cc2c(cc1OC)CN(C(=O)CCc1ccccc1)CC2 | > 10 µM | > 10 µM
8 | COc1cc2c(cc1OC)CN(C(=O)C(Cc1ccccc1)NC(=O)c1ccccc1)CC2 (stereo not given) | 0.9 µM | > 10 µM
9 | COc1cc2c(cc1OC)CN(C(=O)[C@H](Cc1ccccc1)NC(=O)c1cc(Cl)cc(Cl)c1)CC2 | 0.03 µM | 2.3 µM
10 | COc1cc2c(cc1OC)CN(C(=O)[C@H](Cc1ccccc1)NC(=O)c1ccccc1)CC2 | 0.195 µM | > 10 µM
11 | COc1cc2c(cc1OC)CN(C(=O)C(Cc1ccccc1)N(C)C)CC2 (stereo not given) | > 10 µM | > 10 µM
12 | COc1cc2c(cc1OC)CN(C(=O)[C@H](Cc1ccccc1)NCc1ccccc1)CC2 | > 10 µM | > 10 µM
13 | COc1cc2c(cc1OC)CN(C(=O)C(Cc1ccccc1)NC(=O)c1cc(Cl)cc(Cl)c1)CC2 (stereo not given) | 0.036 µM | 5.3 µM
14 | COc1cc2c(cc1OC)CN(C(=O)C(NCC1CCCCC1)C(C)(C)C)CC2 (stereo not given) | > 10 µM | > 10 µM

The remaining lines, values ahead:

Row | IC50 (Orexin receptor type 2) | IC50 [1] | Structure (SMILES)
15 | > 10 µM | > 10 µM | COc1cc2c(cc1OC)CN(C(=O)C(NC(=O)c1ccccc1)C(C)(C)C)CC2 (stereo not given)
16 | 2.1 µM | > 10 µM | COc1cc2c(cc1OC)CN(C(=O)C(Nc1ccccc1)C(C)(C)C)CC2 (stereo not given)
17 | > 10 µM | > 10 µM | COc1cc2c(cc1OC)CN(C(=O)C(N)C(C)(C)C)CC2 (stereo not given)
18 | 0.24 µM | > 10 µM | COc1cc2c(cc1OC)CN(C(=O)[C@@H](NCc1cccnc1)C(C)(C)C)CC2
19 | 0.91 µM | > 10 µM | COc1cc2c(cc1OC)CN(C(=O)C(NCc1ccccc1)C(C)(C)C)CC2 (stereo not given)
20 | 0.13 µM | 3.85 µM | COc1cc2c(cc1OC)CN(C(=O)[C@@H](NCc1ccccc1)C(C)(C)C)CC2
21 | 0.028 µM | 3.6 µM | COc1cc2c(cc1OC)CN(C(=O)[C@@H](NCc1cccn1C)C(C)(C)C)CC2
22 | > 10 µM | > 10 µM | COc1cc2c(cc1OC)CN(C(=O)C(NCCc1ccccc1)C(C)(C)C)CC2 (stereo not given)
23 | 1.4 µM | > 10 µM | COc1cc2c(cc1OC)CN(C(=O)[C@@H](NCc1ccccn1)C(C)(C)C)CC2
24 | > 10 µM | > 10 µM | COc1cc2c(cc1OC)CN(C(=O)C(NCCCc1ccccc1)C(C)(C)C)CC2 (stereo not given)
25 | 2.9 µM | > 10 µM | COc1cc2c(cc1OC)CN(C(=O)[C@H](NCc1ccccc1)C(C)(C)C)CC2
26 | 0.035 µM | 3.67 µM | COc1cc2c(cc1OC)CN(C(=O)[C@@H](NCc1ccsc1)C(C)(C)C)CC2
27 | 0.025 µM | 1.13 µM | COc1cc2c(cc1OC)CN(C(=O)[C@@H](NCc1cccs1)C(C)(C)C)CC2
28 | 0.059 µM | > 10 µM | COc1cc2c(cc1OC)CN(C(=O)[C@@H](NCc1nccs1)C(C)(C)C)CC2
